Structures can show the parent of a compound that is named as a salt.
Key:
[1] = biological target: T1, CB1 receptor; test: In-vitro determination of affinity to CB1/CB2-receptors (radioligand [3H]-CP55940 binding); details: binding data per pharmacological methods part I, table does not say whether human transfected receptor or rat cerebellum
T1 construct: IC50 [nM]; radioligand [3H]-CP55940
Method: (§1) The in-vitro determination of the affinity of the inventive substituted pyrazoline compounds to CB1/CB2-Rezeptors is carried out as described in the publication of Ruth A. Ross, Heather C. Brockie et al., “Agonist-inverse agonist characterization at CB1 and CB2 cannabinoid receptors of L-759633, L759656 and AM630”, British Journal of Pharmacology, 126, 665-672, (1999), whereby the transfected human CB1 and CB2 receptors of Receptor Biology, Inc. are used. The radioligand used for both receptors is [^3H]-CP55940. The respective parts of the description is hereby incorporated by reference and forms part of the present disclosure.
(§2) Binding affinity to CB1 receptor was evaluated according to a modification of the method described by Govaerts et al., Eur J Pharmac Sci 23, 233-243 (2004). The respective parts of the description is hereby incorporated by reference and forms part of the present disclosure.
(§3) Briefly, cerebellum from male wistar rats (250-300 g) were carefully dissected on ice and homogenates were prepared with Potter-Helveheim in a cold 50 mM Tris-HCl solution containing 5 mM MgCl2, 1 mM EDTA and 0.25 M sucrose, pH 7.4. The suspension was centrifuged at 1,000×g for 5 minutes. The supernatants were collected and centrifuged 50,000×g for 15 minutes. The resulting pellets were then resuspended in Tris-HCl buffer without sucrose, homogenized and incubated for 15 min at 37° C. in an orbital shaker bath and centrifuged again at 50,000×g for 15 min. Pellets were weighted, resuspended in Tris-HCl buffer without sucrose, homogenized with Ultraturrax at 13,500 rpm for 3×5 seconds and alicuoted in 0.9 ml volumes in Eppendorf tubes. Alicuotes were centrifuged at 20,800×g for 5 minutes, supernatants discarded and pellets were frozen at −80° C. until use. Total protein concentration was determined using the Bio-Rad Lowry method based kit. Competitive binding experiments were performed in presence of 1 nM [^3H]-CP 55,940 in siliconized glass tubes containing 100 μg protein/tube resuspended in 1 ml final volume of 50 mM Tris-HCl, 5 mM MgCl2, 1 mM EDTA, 0.5% (w/v) bovine serum albumin, pH 7.4. Compounds were present at various concentrations and the non specific binding was determined in the presence of 10 μM HU-210. After 1 hour incubation at 30° C., the suspension was rapidly filtered through 0.5% PEI pre-treated GF/B fiber filters on a 96-well harvester and washed 3 times with 3 ml ice-cold binding buffer without bovine serum albumin. Radioactivity on filters was measured with Wallac Winspectral 1414 counter by liquid scintillation in 6 ml Ecoscint H (National Diagnostics, U.K.). Assays were made in triplicates.
(§4) Binding data were analyzed by non-linear regression with the software GraphPad Prism Version 3.03.

[2] = biological target: T2, CB1 receptor (UniProt P20272); test: as above; details: for Inhibition [%], 10^−7 M: compound at 10^−7 M; for Inhibition [%], 10^−8 M: compound at 10^−8 M
T2 construct: other: compound at 10^−7 M; radioligand [3H]-CP55940; other: compound at 10^−8 M
Method: as §1, §2, §3, §4

[3] = biological target: recombinant human cannabinoid 1 receptor (CB1) (Homo sapiens, UniProt P21554); test: In vitro determination of antagonism to CB1-receptor ([35S]GTPγS binding assay, CHO cell membranes); assay type: biochemical; details: compound at 1 μM against agonist WIN 55,212-2 (3 nM to 3 μM), effect of Rimonabant (1 μM) defined as 100%
Method: Chinese hamster ovary (CHO) cells stably expressing recombinant human cannabinoid 1 receptor (CB1) were cultured in nutrient mixture Ham's F 12 supplemented with 10% heat-inactivated fetal bovine serum, 2 mM L-glutamine, 50 U/ml penicillin, 50 U/ml streptomycin and 0.5 mg/ml geneticin. In order to obtain cells, culture flasks were washed twice with phosphate buffered saline and scraped. Then, cells were collected by centrifugation (200×g, 10 min) and stored dry at −80° C. Cells were homogenized in ice-cold 20 mM HEPES, 10 mM EDTA (pH 7.5) and centrifuged at 40,000×g for 15 min at 4° C. The membrane pellet was resuspended in 20 mM HEPES, 0.1 mM EDTA (pH 7.5) and centrifuged for 15 min at 4° C. The final membrane pellet was resuspended in 20 mM HEPES, 0.1 mM EDTA (pH 7.5), and divided in aliquots and stored at −80° C. until use.
The reaction was performed in 96-well plates. Membranes (15 μg protein/well) were incubated for 60 min at 30° C. in buffer (50 mM HEPES, 100 mM KCl, 5 mM MgCl2,1 mM EDTA, 0.1% wt/vol bovine serum albumin, 5 μM GDP, saponin (10 μg/ml), 0.5 nM [^35S]GTPγS, pH 7.4) with compound at a final concentration of 1 μM in either the absence or presence of agonist WIN 55, 212-2 between 3 nM and 3 μM. The incubation was terminated by rapid filtration through Millipore Multiscreen glass fiber FB, and rinsed two-times with ice-cold assay buffer. Filter plates were dried and 30 μl of scintillation liquid was added. Radioactivity was determined using a Wallac Microbeta Trilux. Each experiment was performed at least in duplicate. A WIN 55, 212-2 dose-response experiment either alone or in the presence of Rimonabant (1 μM) was systematically performed.
The average of basal [^35S]GTPγS binding was subtracted from all binding data. In order to compare the antagonism results from one screening campaign to another one, the difference between the maximal agonist effect of WIN 55, 212-2 alone, and the maximal antagonism effect due to WIN 55, 212-2 plus Rimonabant (1 μM) was defined as 100%.

recombinant human cannabinoid 1 receptor (CB1), sequence (P21554 whole entry): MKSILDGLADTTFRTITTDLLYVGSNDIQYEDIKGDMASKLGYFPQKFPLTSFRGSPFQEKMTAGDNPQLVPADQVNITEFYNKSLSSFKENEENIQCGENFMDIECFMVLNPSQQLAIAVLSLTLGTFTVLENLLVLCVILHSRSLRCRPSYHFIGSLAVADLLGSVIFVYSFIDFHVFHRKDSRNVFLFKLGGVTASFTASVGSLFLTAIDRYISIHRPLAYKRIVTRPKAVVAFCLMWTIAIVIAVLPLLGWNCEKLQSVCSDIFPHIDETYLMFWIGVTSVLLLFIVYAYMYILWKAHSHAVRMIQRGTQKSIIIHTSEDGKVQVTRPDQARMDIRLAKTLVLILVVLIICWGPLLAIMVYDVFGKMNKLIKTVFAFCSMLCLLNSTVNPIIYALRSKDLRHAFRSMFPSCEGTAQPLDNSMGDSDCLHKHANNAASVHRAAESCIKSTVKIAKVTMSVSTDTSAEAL

Structure (SMILES) | IC50 [1] [µM] | Inhibition [%], 10^−7 M [2] [%] | Inhibition [%], 10^−8 M [2] [%] | Antagonism [%] [3] [%] | further results
O=C(N[N+]1([O-])CCCCC1)C1=NN(c2ccc(Cl)cc2Cl)C(c2ccc(Cl)cc2)C1 (centres unmarked) [Example 7, N-oxide of 5-(4-Chloro-phenyl)-1-(2,4-dichloro-phenyl)-4,5-dihydro-1H-pyrazole-3-carboxylic acid piperidin-1-ylamide] | 0.146 | 71.2 | −12.8 |  | 
O=C(NN1CCOCC1)C1=NN(c2ccc(Cl)cc2Cl)C(c2ccc(Cl)cc2)C1 (centres unmarked) [Example 8, 5-(4-Chloro-phenyl)-1-(2,4-dichloro-phenyl)-4,5-dihydro-1H-pyrazole-3-carboxylic acid morpholin-4-ylamide] |  | 21.9 | −8.2 | 54 | 
O=C(NN1CCCC1)C1=NN(c2ccc(Cl)cc2Cl)C(c2ccc(Cl)cc2)C1 (centres unmarked) [Example 11, 5-(4-Chloro-phenyl)-1-(2,4-dichloro-phenyl)-4,5-dihydro-1H-pyrazole-3-carboxylic acid pyrrolidin-1-ylamide] | 0.63 |  |  |  | 
CCCCN(NC(=O)C1=NN(c2ccc(Cl)cc2Cl)C(c2ccc(Cl)cc2)C1)c1ccccc1 (centres unmarked) [Example 29, 5-(4-Chloro-phenyl)-1-(2,4-dichloro-phenyl)-4,5-dihydro-1H-pyrazole-3-carboxylic acid N′-butyl-N′-phenyl-hydrazide] | > 1 |  |  |  | 
CC(C)(C)C1CCC(NC(=O)C2=NN(c3ccc(Cl)cc3Cl)C(c3ccc(Cl)cc3)C2)CC1 (centres unmarked) [Example 31, 5-(4-Chloro-phenyl)-1-(2,4-dichloro-phenyl)-4,5-dihydro-1H-pyrazole-3-carboxylic acid (4-tert-butyl-cyclohexyl)-amide] | > 1 |  |  |  | 
O=C(NCC1CCCCC1)C1=NN(c2ccc(Cl)cc2Cl)C(c2ccc(Cl)cc2)C1 (centres unmarked) [Example 32, 5-(4-Chloro-phenyl)-1-(2,4-dichloro-phenyl)-4,5-dihydro-1H-pyrazole-3-carboxylic acid cyclohexylmethyl-amide] | 0.084 | 52.7 | 12 |  | 
O=C(NC1CCCCC1)C1=NN(c2ccc(Cl)cc2Cl)C(c2ccc(Cl)cc2)C1 (centres unmarked) [Example 41, 5-(4-Chloro-phenyl)-1-(2,4-dichloro-phenyl)-4,5-dihydro-1H-pyrazole-3-carboxylic acid cyclohexylamide] |  | 3.4 | −5.2 | 69 | 
O=C(C1=NN(c2ccc(Cl)cc2Cl)C(c2ccc(Cl)cc2)C1)N1CCN(Cc2ccccc2)CC1 (centres unmarked) [Example 52, (4-Benzyl-piperazin-1-yl)-[5-(4-chloro-phenyl)-1-(2,4-dichloro-phenyl)-4,5-dihydro-1H-pyrazol-3-yl]-methanone] | 0.251 |  |  |  | 
O=C(NN1CCCCC1)C1=NN(c2ccc(Cl)cc2Cl)C(c2ccc(Br)cc2)C1 (centres unmarked) [Example 60, 5-(4-Bromo-phenyl)-1-(2,4-dichloro-phenyl)-4,5-dihydro-1H-pyrazole-3-carboxylic acid piperidin-1-ylamide hydrochloride] |  |  |  |  | IC50 ([1]; hydrochloride): 0.027 µM
O=C(NN1CCCCC1)C1=NN(c2ccc(Cl)cc2Cl)C(c2ccc(Br)cc2)C1 (centres unmarked) [Example 60A, 5-(4-Bromo-phenyl)-1-(2,4-dichloro-phenyl)-4,5-dihydro-1H-pyrazole-3-carboxylic acid piperidin-1-ylamide] | 0.044 | 65.8 | 33.3 |  | 
CCCNC(=O)C1=NN(c2ccc(Cl)cc2Cl)C(c2ccc(Cl)cc2)C1 (centres unmarked) [Example 69, 5-(4-Chloro-phenyl)-1-(2,4-dichloro-phenyl)-4,5-dihydro-1H-pyrazole-3-carboxylic acid propylamide] | 0.355 |  |  |  | 
Cl.O=C(NN1CC2CCCC2C1)C1=NN(c2ccc(Cl)cc2Cl)C(c2ccc(F)cc2)C1 (centres unmarked) [Example 91, 1-(2,4-Dichloro-phenyl)-5-(4-fluoro-phenyl)-4,5-dihydro-1H-pyrazole-3-carboxylic acid (hexahydro-cyclopenta[c]pyrrol-2-yl)-amide hydrochloride] |  |  |  |  | IC50 ([1]; hydrochloride): 0.047 µM; Inhibition [%], 10^−7 M ([2]; hydrochloride): 79.1%; Inhibition [%], 10^−8 M ([2]; hydrochloride): 43%
COC(=O)C1=NN(c2ccc(Cl)cc2Cl)C(c2ccc(Cl)cc2)C1 (centres unmarked) [Example 115, 5-(4-Chloro-phenyl)-1-(2,4-dichloro-phenyl)-4,5-dihydro-1H-pyrazole-3-carboxylic acid methyl ester] |  | −4.3 | 1.9 | 23 | 
CCOC(=O)C1=NN(c2ccc(Cl)cc2Cl)C(c2ccc(Cl)cc2)C1 (centres unmarked) [Example 120, 5-(4-Chloro-phenyl)-1-(2,4-dichloro-phenyl)-4,5-dihydro-1H-pyrazole-3-carboxylic acid ethyl ester] |  | 7.1 | −4.1 | 30 | 
O=C(O)C1=NN(c2ccc(Cl)cc2Cl)C(c2ccc(Br)cc2)C1 (centres unmarked) [Example 128, 5-(4-Bromo-phenyl)-1-(2,4-dichloro-phenyl)-4,5-dihydro-1H-pyrazole-3-carboxylic acid] |  |  |  | 18 | 
O=C(NCC1CCCCCC1)C1=NN(c2ccc(Cl)cc2Cl)C(c2ccc(Cl)cc2)C1 (centres unmarked) [Example 191, 5-(4-Chloro-phenyl)-1-(2,4-dichloro-phenyl)-4,5-dihydro-1H-pyrazole-3-carboxylic acid cycloheptylmethyl-amide] |  | 67.4 | 30.2 | 82 | 
O=C(NN1CC2CCCC2C1)C1=NN(c2ccc(Cl)cc2Cl)C(c2ccc(Cl)cc2)C1 (centres unmarked) [Example 193, 5-(4-Chloro-phenyl)-1-(2,4-dichloro-phenyl)-4,5-dihydro-1H-pyrazole-3-carboxylic acid (hexahydro-cyclopenta[c]pyrrol-2-yl)-amide hydrochloride] |  |  |  |  | Antagonism [%] ([3]; hydrochloride): 115%
Cl.O=C(NN1CCCC1)C1=NN(c2ccc(Cl)cc2Cl)C(c2ccc(Cl)cc2)C1 (centres unmarked) [Example 194, 5-(4-Chloro-phenyl)-1-(2,4-dichloro-phenyl)-4,5-dihydro-1H-pyrazole-3-carboxylic acid pyrrolidin-1-ylamide hydrochloride] |  | 41.7 | 22.9 | 82 | 
